Here are results for 81 compounds from the METLIN SMRT retention time set (Domingo-Almenara et al. 2019).

The data set can be described thus: gradient 5% acetonitrile 3 min, to 50% in 2 min, to 85% in 15 min, held 3 min, 100 µL/min. To be noted: column: Zorbax Extend-C18 2.1 x 50 mm; eluents: water / acetonitrile, 0.1% formic acid. Summed up:
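Using water and acetonitrile that each contained 0.1% formic acid, mixtures of ~100 pure standards were separated at 100 μL/min on a Zorbax Extend-C18 column (2.1 × 50 mm, 1.8 μm). The HPLC fed a quadrupole time-of-flight mass spectrometer working in positive and negative ionization mode, with dead and dwell volumes of 40 μL and 900 μL. Data were acquired over 3 months. Retention time was read from computationally picked adduct peaks after manual inspection of each.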
The compound `COC(=O)c1ccc(N2C=C(C#N)S(=O)(=O)c3ccc(Cl)cc32)cc1` returned an RP-LC retention time of 954 s.
The compound `Cc1ccc(C)c2c(=O)c3c([nH]c12)CCN(CC(=O)Nc1ccccc1F)C3` had an RP-LC retention time of 641 s.
`O=C(Cn1ccc2ccn(Cc3ccccc3)c2c1=O)NCc1ccccc1Cl` yielded an RP-LC retention time of 888 s.
For `COc1cc(OC)cc(-c2nc(-c3cn(Cc4ccccc4)nn3)no2)c1` the value was 1000 s.
For `CCN(CC)CCNC(=O)c1cc(Br)c(N)cc1OC` the value was 645 s; for `CC(C)n1c(=O)sc2cc(S(=O)(=O)N3CCC(C(=O)NC4CCCC4)CC3)ccc21`, 896 s; for `CCc1csc(-c2ccc(N3CCN(C(=O)c4ccc(C#N)cc4F)CC3)nc2)n1`, 929 s.
The result for `Cc1ccc(Cc2nc(C3CC(=O)N(c4ccc(Cl)cc4)C3)no2)cc1` (stereo unspecified) reads 1060 s; that for `COc1ccccc1NC(=O)Nc1c(-c2ccc(C)cc2)nc2ccccn12`, 700 s; that for `COc1ccc(NC(=O)Cn2nc3n(c2=O)CCCCC3)c(OC)c1`, 678 s.
The compound `CN(C)c1ccc(CNC(=O)C2CCN(S(=O)(=O)c3cn(C)cn3)CC2)cc1` showed an RP-LC retention time of 550 s.
Regarding `O=C(CC1CCCC1)N1CCC(c2noc(-c3ccncc3)n2)C1` (stereo unspecified), the RP-LC retention time worked out at 786 s.
`O=c1[nH]c2ccccc2c2ccccc12` came in with an RP-LC retention time of 806 s.
For `CCCNC(=O)C1CCN(c2ccc(SCC(=O)NCc3cc(F)cc(F)c3)nn2)CC1` the value was 626 s; for `CCOc1cc(=O)n2c(c1C(=O)OCc1ccc(C)cc1)CCCCC2`, 1010 s; for `CCN1C(=O)c2cccnc2Sc2cc(NC(=O)c3cccc(Cl)c3)ccc21`, 912 s.
The result for `CCOc1cc(-c2noc(-c3nnn4c3COC(c3ccc(Cl)cc3)C4)n2)ccc1OC` (stereo unspecified) reads 1190 s; that for `CCn1c(C)c(CN2CCC(C(=O)N3CCN(c4ccccc4F)CC3)CC2)c2ccccc21`, 729 s.
Consider `Cc1ccccc1NC(=O)c1cc(C(C)(C)C)n2nccc2n1`, for which the RP-LC retention time stood at 1310 s.
As to `O=C(CCc1nnn2c1CN(C(=O)c1ccccc1F)CC2)NC1CC1`, the RP-LC retention time worked out at 615 s.
`CC(=O)Oc1ccccc1C(=O)N1CCCc2ccccc21` yielded an RP-LC retention time of 868 s.
`CCN(Cc1ccccc1)S(=O)(=O)c1cc(-c2nc(C)cs2)sc1C` yielded an RP-LC retention time of 1200 s.
`Cc1cc2nn(CC(=O)Nc3cc(F)cc(F)c3)c(=O)n2c(Nc2ccccc2)n1` had an RP-LC retention time of 1040 s.
The result for `Cc1ccc2nc(C(=O)N3CCN(c4ccccc4C)CC3)cn2c1` reads 664 s.
`CC(C)Cn1cc(S(=O)(=O)Nc2ccc(F)cc2F)c2cccnc21`: the RP-LC retention time stood at 944 s.
On to `CN1C2CCC1CC(OC(c1ccccc1)c1ccccc1N)C2` (stereo unspecified), for which the RP-LC retention time was 752 s.
Take `Cc1cc(NC2CCCCC2)nc(-n2nc(C)cc2C)n1`: the RP-LC retention time was determined as 850 s.
For `COc1ccc(Cc2nc3nccc(-c4ccccc4)n3n2)cc1` the value was 872 s; for `O=C(CCc1c[nH]c2ccccc12)N1CCN(C(=O)c2cc(-c3cccnc3)n[nH]2)CC1`, 814 s; for `Cn1c(=O)n(C)c2cc(CNC(C)(C)CC(C)(C)C)ccc21`, 624 s.
Compound `Cc1cc(N(C)C)n2nc(CN3CCN(c4cccc(Cl)c4)CC3)nc2n1` registered an RP-LC retention time of 635 s.
The result for `CCCCN(C(=O)C1CC1)C1CCS(=O)(=O)C1` (stereo unspecified) reads 665 s; that for `CCSCCOC(=O)C1=C(C)NC2=C(C(=O)CCC2)C1c1ccc(C(=O)OC)cc1` (stereo unspecified), 892 s; that for `Nc1nc(-c2nn(Cc3ccccc3F)c3ncccc23)ncc1C1CC1`, 720 s.
The result for `CCCCCN1CC(=O)N(c2ccc(OC)cc2)[C@@H]2CS(=O)(=O)C[C@@H]21` reads 708 s.
The result for `CCn1ccc(C(=O)NCC2Cn3cccc3C(=O)N2C)n1` (stereo unspecified) reads 596 s; that for `O=C(Nc1ccccc1F)C1CCN(c2cc(N3CCCCC3)ncn2)CC1`, 689 s.
Regarding `O=C(c1ccnc(N2CCNC(c3ccccc3)C2)c1)N1CCCN(c2ncccn2)CC1` (stereo unspecified), the RP-LC retention time stood at 596 s.
For `O=C(NCCCc1ccccc1)C1CCCN(c2ccc(=O)n(-c3cccc(Cl)c3)n2)C1` (stereo unspecified) the value was 926 s; for `Cn1c(-c2ccccc2)nn(CCNC(=O)C2COc3ccccc3O2)c1=O` (stereo unspecified), 702 s.
`CC(C)(CSc1nnnn1-c1ccccc1)NS(=O)(=O)c1ccccc1` returned an RP-LC retention time of 862 s.
For `CCOC(=O)CNc1nc(-c2cccc([N+](=O)[O-])c2)nc2ccccc12` the value was 833 s; for `COc1ccc(-c2noc(CN3C(=O)COc4ccc(Cl)cc43)n2)cc1OC`, 971 s.
`CCNc1cc(-n2cccn2)ncn1` yielded an RP-LC retention time of 666 s.
`Cc1ccc2[nH]cc(CCN3CC(C(=O)N4CCOCC4)CC3=O)c2c1` (stereo unspecified): the RP-LC retention time stood at 679 s.
As for `Cc1cc(NC(=O)Nc2cc(F)ccc2F)no1`, the RP-LC retention time worked out at 894 s.
For `COc1ccc(-c2nn3c(-c4ccc(N(C)C)cc4)nnc3s2)cc1` the value was 1120 s; for `COc1ccc(-c2nnc(-c3cccc(S(=O)(=O)N4CCC(C)CC4)c3)o2)cc1`, 1110 s; for `Cc1cccc(N2CCN([C@H]3CS(=O)(=O)C[C@@H]3S(=O)(=O)c3ccc(F)cc3)CC2)c1`, 941 s.
The result for `Cc1cc(NC(=O)Cn2ccn3nc(-c4ccccc4)c(CO)c3c2=O)ccc1Br` reads 917 s.
For `CN(C)C(=O)c1n[nH]c2c1CN(C(=O)c1ccccc1F)CC2` the value was 618 s.
In turn, `COc1cccc(-c2nc(N3CCSCC3)ncc2C(=O)O)c1` gave an RP-LC retention time of 857 s.
As for `CCCNc1cc(N2CCC(CCC(=O)NCc3ccc(OC)cc3)CC2)ncn1`, the RP-LC retention time stood at 657 s.
Compound `COc1ccc(OC)c(Nc2c(-c3cccc(O)c3)nc3cnccn23)c1` displayed an RP-LC retention time of 727 s.
Regarding `CN1CCCCCCN(C(=O)c2cccs2)[C@H]2CCC[C@H]2C1=O`, the RP-LC retention time is 826 s.
In turn, `Cc1nocc1C(=O)N1CCCn2ccnc2C1C1CCCC1` (stereo unspecified) gave an RP-LC retention time of 589 s.
Consider `CCCN(Cc1ccc(OC)c(OC)c1)Cc1cc(=O)n2cccc(C)c2n1`, for which the RP-LC retention time worked out at 620 s.
On to `O=C(Cc1nnc(-c2cnccn2)o1)NCc1ccccc1`, for which the RP-LC retention time was 635 s.
`NC(=O)Cn1c(CCc2ccccc2)nc2ccccc21` came in with an RP-LC retention time of 581 s.
For the compound `COc1ccc(NC(=O)N2[C@H]3CC[C@@H]2c2cncnc2C3)c(C)c1`, the RP-LC retention time came out at 634 s.
The result for `COc1cccc(CN2C[C@@H](CO)[C@H](c3nc(C4CC4)no3)C2)n1` reads 618 s; that for `O=C1NC2(CCN(C(=O)Nc3ccccc3Cl)CC2)Oc2ccccc21`, 765 s; that for `CC(C)c1ccc(CNC(=O)CN2CCc3ccccc3C2C(=O)N2CCCC2)cc1` (stereo unspecified), 908 s.
The result for `COc1ccc(-n2nnc(-c3nc(-c4cccc(OC)c4)cs3)c2N)cc1` reads 1070 s; that for `Cc1cccc(-c2noc(Cn3c(=O)n(-c4ccccc4)c(=O)c4sccc43)n2)c1`, 1000 s.
The result for `C=CCNC(=O)N1CCCN(C2=NS(=O)(=O)C(c3ccc(F)cc3)=C2C)CC1` reads 736 s; that for `CC(CCc1ccccc1)NC(=O)Cc1nnc(-c2ccc3ncccc3c2)o1` (stereo unspecified), 761 s.
On to `COCCNC(=O)c1ccc(OC2CCN(CC(c3ccccc3)c3ccccc3)CC2)c(OC)c1`, for which the RP-LC retention time came to 680 s.
The result for `O=C(NCCc1ccc(N2CCCC2)cc1)C(=O)Nc1ccc2c(c1)OCCO2` reads 844 s.
`COc1cccc(COc2cn(C)c(C(=O)Nc3ccc4c(c3)OCCO4)cc2=O)c1` gave an RP-LC retention time of 675 s.
Regarding `O=C(CCc1c(-c2ccccc2)nc2ccccn12)NC1CCCCCC1`, the RP-LC retention time stood at 666 s.
In turn, `Cc1ccccc1-n1c(=O)c2sccc2n(Cc2nc(-c3ccc(F)c(Cl)c3)no2)c1=O` registered an RP-LC retention time of 1110 s.
The result for `CCCn1nc2n(c1=O)CCN(Cc1ccc(C)c(C)c1)C2` reads 749 s; that for `Cn1nc(-c2nc(Cc3ccccc3)no2)c2c1CCN(C(=O)C1CCCO1)C2` (stereo unspecified), 777 s.
The result for `CC(C)Sc1ccc(CC(=O)NCC2CCN(C(=O)c3ccccc3F)CC2)cc1` reads 833 s; that for `CCOCCCNC(=O)N1CCOc2ccc(CN(CC)CC)cc2C1`, 591 s.
For `COC(=O)c1cc2n(n1)CC(C)(C(=O)NC1CCCCC1)N(c1ccc(F)cc1)C2=O` (stereo unspecified) the value was 847 s; for `CC(C)CN(Cc1cccnc1)C1CN(C(=O)NCc2ccc(F)cc2)C1`, 640 s; for `Cc1ccc(C(=O)Nc2nc(-c3ccccc3)cs2)cc1[N+](=O)[O-]`, 1090 s.
The compound `COc1ccc(C(=O)N2CCCn3nc(-c4ccc(Cl)cc4)cc3C2)cn1` showed an RP-LC retention time of 881 s.
The result for `Cc1ccc(-c2noc3ncnc(N4CCN(c5ccccn5)CC4)c23)cc1` reads 690 s.
